Measurements taken from ChEMBL document CHEMBL5537164, “Discovery of Potent, Orally Bioavailable, Tricyclic NLRP3 Inhibitors” (J Med Chem, 2024).
Values after ≈ are worked out from the molar mass of the structure shown.

Legend:
[1] = Metabolic stability in human liver microsomes assessed as intrinsic clearance; assay type: ADME, Microsome; settings: read-out: CLH
[2] = biological target: Nuclear factor NF-kappa-B complex (Homo sapiens, UniProt P19838+Q00653+Q04206); experiment: Inhibition of NF-kappaB in PMA-differentiated human THP-1 cells assessed as reduction in TNF-alpha release preincubated with compound for 1 hrs followed by Pam3CSK4 stimulation and measured after 3 hrs by HTRF assay; assay type: cell-based
Nuclear factor NF-kappa-B complex, sequence (P19838 1-433 limits assumed): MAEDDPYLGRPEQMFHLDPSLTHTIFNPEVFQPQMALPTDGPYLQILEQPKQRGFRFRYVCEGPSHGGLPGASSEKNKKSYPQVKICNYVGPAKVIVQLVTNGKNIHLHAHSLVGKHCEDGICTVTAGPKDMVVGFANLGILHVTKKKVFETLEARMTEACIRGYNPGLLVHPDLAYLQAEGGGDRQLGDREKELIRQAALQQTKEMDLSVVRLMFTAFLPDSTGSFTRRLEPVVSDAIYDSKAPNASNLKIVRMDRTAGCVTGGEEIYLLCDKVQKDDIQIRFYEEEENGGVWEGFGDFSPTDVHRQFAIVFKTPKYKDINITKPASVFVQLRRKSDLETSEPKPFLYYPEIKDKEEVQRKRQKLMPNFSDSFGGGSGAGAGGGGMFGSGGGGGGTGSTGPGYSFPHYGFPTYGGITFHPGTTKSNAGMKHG
Nuclear factor NF-kappa-B complex, sequence (Q00653 1-454 limits assumed): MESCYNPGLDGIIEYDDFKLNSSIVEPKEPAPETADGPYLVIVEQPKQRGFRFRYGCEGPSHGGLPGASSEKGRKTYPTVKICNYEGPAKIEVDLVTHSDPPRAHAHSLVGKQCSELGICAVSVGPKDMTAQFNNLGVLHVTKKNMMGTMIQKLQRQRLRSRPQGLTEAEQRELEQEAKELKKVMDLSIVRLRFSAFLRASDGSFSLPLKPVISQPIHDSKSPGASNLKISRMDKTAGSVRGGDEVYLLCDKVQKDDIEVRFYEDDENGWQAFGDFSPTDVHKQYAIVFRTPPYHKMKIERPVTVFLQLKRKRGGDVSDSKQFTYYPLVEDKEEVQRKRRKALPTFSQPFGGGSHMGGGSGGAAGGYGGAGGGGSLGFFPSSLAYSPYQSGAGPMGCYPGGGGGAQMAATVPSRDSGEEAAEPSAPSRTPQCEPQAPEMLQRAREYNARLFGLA
Nuclear factor NF-kappa-B complex, sequence (Q04206 whole entry): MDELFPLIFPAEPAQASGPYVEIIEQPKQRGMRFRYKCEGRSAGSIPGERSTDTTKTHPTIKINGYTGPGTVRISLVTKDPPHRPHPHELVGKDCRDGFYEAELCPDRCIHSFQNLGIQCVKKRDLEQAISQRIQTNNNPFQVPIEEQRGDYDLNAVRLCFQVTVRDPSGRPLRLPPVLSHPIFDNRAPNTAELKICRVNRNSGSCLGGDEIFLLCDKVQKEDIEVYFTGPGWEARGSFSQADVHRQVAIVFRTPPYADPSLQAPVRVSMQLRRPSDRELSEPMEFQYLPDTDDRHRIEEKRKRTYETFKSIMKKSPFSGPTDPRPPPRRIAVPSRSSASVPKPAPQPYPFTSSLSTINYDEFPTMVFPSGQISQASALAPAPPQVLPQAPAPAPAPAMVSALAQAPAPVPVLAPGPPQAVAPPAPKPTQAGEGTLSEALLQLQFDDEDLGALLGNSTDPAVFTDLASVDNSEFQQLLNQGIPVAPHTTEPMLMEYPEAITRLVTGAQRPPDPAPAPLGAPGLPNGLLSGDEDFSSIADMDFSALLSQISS

[3] = Equilibrium solubility of compound in DMSO at pH 6.8 by shake flask method; assay type: physicochemical
[4] = Apparent permeability from apical to basolateral side in MDCK cells by high-throughput assay; assay type: ADME, cell-based, Canis lupus familiaris; settings: dog
[5] = Lipophilicity, logD of compound at pH 7.4; assay type: physicochemical; settings: buffer
[6] = Metabolic stability in mouse liver microsomes assessed as intrinsic clearance; assay type: ADME, Microsome; settings: read-out: CLH
[7] = Drug concentration in blood of C57BL/6 mouse model of acute peritonitis at 50 mg/kg, po preadministered with compound for 1 hrs followed by LPS stimulation for 2 hrs and measured 15 mins after ATP addition by HPLC-MS/MS analysis; assay type: ADME, organism-based; settings: whole blood, read-out: Ct
[8] = In vivo inhibition of NLRP3 in LPS/ATP-induced C57BL/6 mouse model of acute peritonitis assessed as reduction in IL-1beta level at 50 mg/kg, po preadministered with compound for 1 hrs followed by LPS stimulation for 2 hrs and measured 15 mins after ATP addition by ELISA relative to control; assay type: functional; settings: time 3.25 hrs
[9] = AUC (0 to infinity) in C57BL/6 mouse at 3 mg/kg, po measured after 24 hrs by LC-MS/MS analysis; assay type: ADME, organism-based; settings: in vivo
[10] = Oral bioavailability in C57BL/6 mouse measured after 24 hrs by LC-MS/MS analysis; assay type: ADME, organism-based; settings: in vivo
[11] = Clearance in C57BL/6 mouse at 1 mg/kg, iv measured after 24 hrs by LC-MS/MS analysis; assay type: ADME, organism-based; settings: in vivo
[12] = biological target: Voltage-gated inwardly rectifying potassium channel KCNH2 (Homo sapiens, UniProt Q12809); experiment: Displacement of [3H]-dofetilide from human ERG; assay type: toxicity
Voltage-gated inwardly rectifying potassium channel KCNH2, sequence (Q12809 whole entry): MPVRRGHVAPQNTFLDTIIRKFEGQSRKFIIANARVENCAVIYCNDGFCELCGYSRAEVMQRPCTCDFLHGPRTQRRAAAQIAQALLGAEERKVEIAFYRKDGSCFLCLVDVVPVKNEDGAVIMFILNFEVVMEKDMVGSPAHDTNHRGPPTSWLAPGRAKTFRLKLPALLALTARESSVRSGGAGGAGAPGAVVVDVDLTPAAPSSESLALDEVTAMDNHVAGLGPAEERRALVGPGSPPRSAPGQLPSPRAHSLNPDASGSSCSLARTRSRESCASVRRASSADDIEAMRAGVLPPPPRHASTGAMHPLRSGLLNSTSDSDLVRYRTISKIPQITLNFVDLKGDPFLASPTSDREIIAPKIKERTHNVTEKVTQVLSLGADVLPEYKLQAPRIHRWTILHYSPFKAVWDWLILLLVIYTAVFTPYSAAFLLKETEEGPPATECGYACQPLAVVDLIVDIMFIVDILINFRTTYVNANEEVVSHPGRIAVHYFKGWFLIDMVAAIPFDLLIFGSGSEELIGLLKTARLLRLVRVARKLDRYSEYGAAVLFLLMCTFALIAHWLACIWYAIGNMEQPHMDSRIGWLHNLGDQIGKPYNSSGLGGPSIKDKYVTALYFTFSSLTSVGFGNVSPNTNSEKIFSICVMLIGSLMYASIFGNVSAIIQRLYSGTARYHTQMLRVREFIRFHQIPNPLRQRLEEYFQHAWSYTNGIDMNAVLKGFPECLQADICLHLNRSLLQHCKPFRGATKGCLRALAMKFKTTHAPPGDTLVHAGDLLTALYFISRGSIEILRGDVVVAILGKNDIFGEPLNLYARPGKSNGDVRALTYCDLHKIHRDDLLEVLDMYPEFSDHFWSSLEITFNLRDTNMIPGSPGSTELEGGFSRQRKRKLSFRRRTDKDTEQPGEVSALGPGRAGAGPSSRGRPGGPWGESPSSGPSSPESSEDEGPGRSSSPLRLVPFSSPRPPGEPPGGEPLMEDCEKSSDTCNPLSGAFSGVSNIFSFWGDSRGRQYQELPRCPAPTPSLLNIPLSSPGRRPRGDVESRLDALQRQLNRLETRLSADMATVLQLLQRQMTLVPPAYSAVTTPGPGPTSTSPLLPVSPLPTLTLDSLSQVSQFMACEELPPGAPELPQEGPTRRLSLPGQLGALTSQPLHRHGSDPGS

Cytochrome P450 = experiment: Drug metabolism in human liver microsomes assessed as CYP450-driven thiophene oxidation mediated metabolite formation by LC-MS/MS analysis; assay type: ADME, Microsome
[13] = Metabolic stability in rat liver microsomes assessed as intrinsic clearance; assay type: ADME, Microsome; settings: read-out: CLH

microsomal CLint [1] [µL/min/mg]	solubility [3] [µM]	Papp A→B [4] [×10⁻⁶ cm/s]	logD [5]	microsomal CLint [6] [µL/min/mg]	Compound	further results
101	3 (≈ 1.1 µg/mL)	–	3	> 1000	CCCc1nn(CC(=O)Nc2cccnc2)c(=O)c2cc3sccc3n12	–
63	21 (≈ 7.42 µg/mL)	27	2.6	412	CCc1nn(CC(=O)Nc2cccnc2)c(=O)c2cc3sccc3n12	–
68	23 (≈ 8.82 µg/mL)	–	2.8	300	CC(C)(O)c1nn(CC(=O)Nc2cccnc2)c(=O)c2cc3sccc3n12	–
144	19 (≈ 6.98 µg/mL)	–	3.1	490	CC(C)c1nn(CC(=O)Nc2cccnc2)c(=O)c2cc3sccc3n12	Drug metabolism (Cytochrome P450): Metabolite_Detected
76	26 (≈ 9.5 µg/mL)	–	2.7	464	O=C(Cn1nc(C2CC2)n2c(cc3sccc32)c1=O)Nc1cccnc1	–
269	2 (≈ 0.705 µg/mL)	25	–	–	CCc1nn(CC(=O)Nc2ccccc2)c(=O)c2cc3sccc3n12	–
< 10	91 (≈ 29.6 µg/mL)	–	1.9	48	O=C(Cn1ncn2c(cc3sccc32)c1=O)Nc1cccnc1	–

The remaining lines, values behind:

Compound	microsomal CLint [1] [µL/min/mg]	solubility [3] [µM]	Papp A→B [4] [×10⁻⁶ cm/s]	logD [5]	microsomal CLint [6] [µL/min/mg]	further results
CCc1nn(CC(=O)Nc2cccc(C(C)=O)c2)c(=O)c2cc3sccc3n12	299	4 (≈ 1.58 µg/mL)	41	–	–	IC50 [2]: > 100 µM
CC(C)c1nn(CC(=O)N[C@@H]2CCCN(C)C2)c(=O)c2cc3scnc3n12	27	> 1000	–	1.1	231	concentration at 3.25 h [7]: 113 nM; inhibition in vivo at 50 mg/kg [8]: 40%
CC(C)c1nn(CC(=O)N[C@@H]2CCCNC2)c(=O)c2cc3sc(Cl)cc3n12	12	> 1000	3	1	55	AUC(0-inf) [9]: 0.691 µM·h; bioavailability [10]: 27.6%; clearance [11]: 55.7 mL/min/kg; IC50 [12]: 26 µM
CC(C)c1nn(CC(=O)N[C@@H]2CCCN(C)C2)c(=O)c2cc3sc(Cl)cc3n12	59	> 1000	15	2.4	364	AUC(0-inf) [9]: 0.163 µM·h; bioavailability [10]: 7.8%; clearance [11]: 58 mL/min/kg; IC50 [12]: > 30 µM
CC(C)(O)c1nn(CC(=O)N[C@H]2C[C@@](C)(O)C2)c(=O)c2cc3sc(Cl)cc3n12	< 10	36 (≈ 15.3 µg/mL)	–	2.8	33	concentration at 3.25 h [7]: 65 nM; inhibition in vivo at 50 mg/kg [8]: 30%
CCc1nn(CC(=O)NC)c(=O)c2cc3sccc3n12	54	128 (≈ 37.2 µg/mL)	26	–	–	–
CC(C)c1nn(CC(=O)Nc2cccnc2)c(=O)c2cc3sc(Cl)cc3n12	44	10 (≈ 4.02 µg/mL)	–	4	124	AUC(0-inf) [9]: 3.75 µM·h; bioavailability [10]: 55%; clearance [11]: 16.5 mL/min/kg
CCc1nn(CC(=O)Nc2ccncn2)c(=O)c2cc3sccc3n12	69	7 (≈ 2.48 µg/mL)	21	–	–	–
CCc1nn(CC(=O)N(C)c2ccccc2)c(=O)c2cc3sccc3n12	971	6 (≈ 2.2 µg/mL)	19	–	–	–
CCc1nn(CC(=O)Nc2cccc(O)c2)c(=O)c2cc3sccc3n12	405	4 (≈ 1.47 µg/mL)	5.7	–	–	–
CC(C)c1nn(CC(=O)NC2CCOCC2)c(=O)c2cc3sc(Cl)cc3n12	30	3 (≈ 1.23 µg/mL)	–	3	129	–
CCc1nn(CC(=O)NC2CCCNC2)c(=O)c2cc3sccc3n12 (stereo unspecified)	< 10	> 1000	0.7	-0.2	50	microsomal CLint [13]: 40 µL/min/mg
CC(C)c1nn(CC(=O)Nc2cccnc2)c(=O)c2cc3sc(F)cc3n12	79	251 (≈ 96.7 µg/mL)	–	3.4	227	–
